From patent publication US4945158A, “Antidiabetic phosphonates” (American Cyanamid Company, priority 1988, dated 1990)

Tests used:
[1] = target: T1, 6-phosphofructo-1-kinase (PFK) (Rattus norvegicus, UniProt P30835); assay: PFK stimulation, aldolase-coupled spectrophotometric assay; assay type: biochemical; details: stimulation of purified rat liver 6-phosphofructo-1-kinase; 0.2 mM fructose-6-phosphate, pH 7.3, 30° C.; read-out: PFK ED50
T1 construct: purified rat liver 6-phosphofructo-1-kinase; from tissue; host or cells: rat liver
T1 sequence (P30835 2-780 limits assumed): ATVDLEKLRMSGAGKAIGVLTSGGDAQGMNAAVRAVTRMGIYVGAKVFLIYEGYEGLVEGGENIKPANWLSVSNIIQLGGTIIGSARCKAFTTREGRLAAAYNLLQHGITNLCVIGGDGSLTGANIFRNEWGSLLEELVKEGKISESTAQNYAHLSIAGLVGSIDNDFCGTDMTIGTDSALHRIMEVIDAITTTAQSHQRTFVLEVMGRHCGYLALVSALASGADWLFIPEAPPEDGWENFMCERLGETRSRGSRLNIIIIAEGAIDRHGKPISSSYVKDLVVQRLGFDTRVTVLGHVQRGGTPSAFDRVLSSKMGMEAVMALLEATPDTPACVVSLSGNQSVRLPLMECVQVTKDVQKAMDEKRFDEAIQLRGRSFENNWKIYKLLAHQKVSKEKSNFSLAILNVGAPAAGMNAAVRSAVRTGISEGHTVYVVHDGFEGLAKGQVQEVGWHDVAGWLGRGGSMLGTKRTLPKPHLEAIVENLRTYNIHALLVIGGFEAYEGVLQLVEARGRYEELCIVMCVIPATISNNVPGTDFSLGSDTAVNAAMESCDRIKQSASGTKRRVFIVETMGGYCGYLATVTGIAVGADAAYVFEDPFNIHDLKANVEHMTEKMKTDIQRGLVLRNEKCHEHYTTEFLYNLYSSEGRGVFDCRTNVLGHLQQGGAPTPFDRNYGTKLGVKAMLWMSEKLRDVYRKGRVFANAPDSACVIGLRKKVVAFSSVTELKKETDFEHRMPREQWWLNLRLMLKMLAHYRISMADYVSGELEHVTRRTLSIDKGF
Description: (§1) The novel compounds of this invention were tested for their ability to stimulate the enzyme 6-phosphofructo-1-kinase ("PFK") and for their ability to inhibit the enzyme fructose-1,6-bisphosphatase ("FBP") using the procedures described below.
Effects on the activity of PFK were determined using an aldolase-coupled, spectrophotometric assay. The assay mixture contained: […] N-tris-(hydroxymethyl)-methyl-2-aminoethanesulfonic acid, hydrochloride ("TES-HCl", pH 7.3); 1 mM ethylenediaminetetraacetic acid ("EDTA"); 6 mM magnesium chloride; 2.5 mM dithiothreitol; 0.165 mM nicotinamide adenine dinucleotide ("NADH"); 1 mM adenosine triphosphate ("ATP"); 0.04 U aldolase; 0.4 U triose phosphate isomerase; alpha-glycerolphosphate dehydrogenase (1.5 U/ml); 0.1 U of purified rat liver 6-phosphofructo-1-kinase; and various concentrations of the test compound, all in a final volume of 1 ml. The mixture was preincubated for 3 minutes at 30° C. and then the reaction was initiated with 0.2 mM fructose-6-phosphate. The rate of decrease in absorbance at 340 nm was measured at 30° C. with a recording spectrophotometer.

[2] = target: T2, fructose-1,6-bisphosphatase (FBP) (Rattus norvegicus, UniProt P19112); assay: FBP inhibition, spectrophotometric assay; assay type: biochemical; details: inhibition of purified rat liver FBP; 0.02 mM fructose-1,6-bisphosphate, pH 7.4, 30° C.
T2 construct: purified rat liver FBP; from tissue; host or cells: rat liver
T2 sequence (P19112 2-363 limits assumed): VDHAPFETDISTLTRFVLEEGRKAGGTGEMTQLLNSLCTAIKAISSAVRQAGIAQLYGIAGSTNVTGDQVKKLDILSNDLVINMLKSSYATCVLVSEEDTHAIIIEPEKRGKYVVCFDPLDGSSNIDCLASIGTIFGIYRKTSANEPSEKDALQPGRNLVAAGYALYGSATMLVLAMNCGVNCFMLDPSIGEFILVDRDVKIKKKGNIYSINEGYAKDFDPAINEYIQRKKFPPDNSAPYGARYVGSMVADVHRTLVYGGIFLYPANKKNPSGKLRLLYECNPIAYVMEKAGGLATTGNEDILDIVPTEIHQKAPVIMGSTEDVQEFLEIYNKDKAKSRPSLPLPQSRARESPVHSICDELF
Description: as §1
Effects on the activity of FBP were determined using a spectrophotometric assay. The assay mixture contained 100 mM tris(hydroxymethyl)aminomethane,hydrochloride ("TRIS-HCl", pH 7.4); 2.5 mM betamercaptoethanol; 2 mM magnesium chloride; 0.05 mM EDTA; 0.2 mM nicotinamide adenine dinucleotide phosphate ("NADP"); 10 U phosphoglucose isomerase; 5 U glucose-6-phosphatedehydrogenase; 0.02 U of purified rat liver FBP; and various concentrations of the test compound, all in a final volume of 1 ml. The mixture was preincubated for 3 minutes at 30° C. and then the reaction was initiated with 0.02 mM fructose-1,6-bisphosphate. The rate of increase in absorbance at 340 nm was measured at 30° C. with a recording spectrophotometer.

| EC50 [1] | IC50 [2] | SMILES |
| --- | --- | --- |
| 20 µM | 602 µM | O=P(O)(O)C[C@@H]1O[C@H](COP(=O)(O)O)[C@@H](O)[C@@H]1O [2,5-Anhydro-1-deoxy-1-phosphono-D-glucitol, 6-(dihydrogen phosphate)] |
| 4 µM | 58 µM | O=P(O)(O)C[C@H]1O[C@H](COP(=O)(O)O)[C@@H](O)[C@@H]1O [2,5-Anhydro-1-deoxy-1-phosphono-D-mannitol, 6-(dihydrogen phosphate)] |
| 12 µM | 240 µM | O=P(O)(O)C[C@]1(CO)O[C@H](COP(=O)(O)O)[C@@H](O)[C@@H]1O [2,5-Anhydro-1-deoxy-2-C-(hydroxymethyl)-1-phosphono-D-glucitol, 6-(dihydrogen phosphate)] |
| 6 µM | 393 µM | O=P(O)(O)C[C@@]1(CO)O[C@H](COP(=O)(O)O)[C@@H](O)[C@@H]1O [2,5-Anhydro-1-deoxy-2-C-(hydroxymethyl)-1-phosphono-D-mannitol, 6-(dihydrogen phosphate)] |
| 6 µM | 80 µM | O=P(O)(O)CC[C@H]1O[C@H](COP(=O)(O)O)[C@@H](O)[C@@H]1O [3,6-Anhydro-1,2-dideoxy-1-phosphono-D-manno-heptitol, 7-(dihydrogen phosphate)] |
| 12 µM | – | O=P(O)(O)CCC[C@@H]1O[C@H](COP(=O)(O)O)[C@@H](O)[C@@H]1O [4,7-Anhydro-1,2,3-trideoxy-1-(dihydroxyphosphinyl)-D-gluco-octitol, 8-(dihydrogen phosphate)] |
| 27 µM | 200 µM | O=P(O)(O)CCC[C@H]1O[C@H](COP(=O)(O)O)[C@@H](O)[C@@H]1O [4,7-anhydro-1,2,3-trideoxy-1-(dihydroxyphosphinyl)-D-manno-octitol, 8-(dihydrogen phosphate)] |
